Results reported in patent US8742082B2, “Compositions and methods for influencing satiety, lipid metabolism, and fat utilization” (Nestec S.A., priority 2008, dated 2014).

How the values were obtained:
Type in all cases: in vivo
Adiponectin = experiment: Real-time PCR gene expression in peripheral tissues: adiponectin; conditions: peritoneal adipose tissue; C57bl6j mice, high fat diet, 100 mg/kg/body weight in diet, 5 weeks
Method: (§1) The expression of 45 genes was measured by real-time PCR in peripheral tissues to identify genes that were differentially expressed in response to oral administration of oleoylethanolamide (OEA) or a non-hydrolysable OEA analog (KDS 5104), which affect satiety, lipid metabolism, fat utilization, food intake, and body fat mass.
(§2) Animals, diet, and experimental design. Adult male C57bl6j mice purchased at 8 weeks of age were individually housed and maintained ad libitum on high fat diet and water for 2 weeks. Seven mice were randomly allocated in 3 groups and fed with a high fat diet (lipids represented 50% of daily energy) for 2 weeks. For one kilogram, the composition of the high fat diet was: 235 g casein, 201 g saccharose, 3.5 g L-cystine, 85 g starch, 116 g maltodextrin, 60 g cellulose, 12 g vitamins mix (AIN-93M, UPAE, Jouy-en-Josas, France), 51.5 g mineral mix (AIN-93Vx, UPAE, Jouy-en-Josas, France), and 236 g lard. Then, either OEA or KDS 5104 was added to the diet at a concentration of 100 mg/kg/body weight. The mice were kept under treatment for 5 weeks.
(§3) Sampling. At the end of the experimental period, mice were sacrificed by blood drawing (cardiac puncture) after anesthesia with isoflurane. Plasma was obtained by centrifugation (1,000 g for 10 min at 4° C.). Mesenteric, epididymal, inguinal and peritoneal adipose depots, as well as liver, stomach, small intestine mucosa, pancreas, and gastrocnemian muscle were removed and frozen into liquid nitrogen. Plasma, urine, feces, and organ samples were kept at −80° C. until analysis.
(§4) RNA extraction and gene expression. Total RNA from liver, intestine mucous membrane, adipose tissues, gastrocnemian muscle, pancreas and stomach were extracted with TRIzol reagent (Invitrogen, Carlsbad, USA) according to the manufacturer's instruction. The RNA concentration was determined on nanodrop from the absorbance at 260 nm. […] Real-time quantitative PCR (RT-qPCR) were performed on cDNA obtained as described above using a high through put system (Biomek 3000, Beckman & Coulter, Fullerton, USA) and a Lightcycler 480 (Roche/Hitachi, Basel, Switzerland) with SYBR Green Master mix+kit (Eurogentec, Philadelphia, USA). […] Values were expressed as ratio of RNA levels relative to control mice (diets with 0 mg of OEA/kg/body weight) using ΔΔ(Ct) (Livak K J & Schmittgen T D, 2001, Methods 25:402-8). Gene expression of the following genes was measured (abbreviation and GenBank Accession shown in parentheses).
Statistical analysis. […] Daily food intake was analyzed using two-way ANOVA on Statview software. […] For statistical analysis of the gene expression data, values were calculated relative to 18S expression for each mouse and gene.

[1] = system: Fasting induced adipocyte factor (Fiaf); experiment: Real-time PCR gene expression in peripheral tissues: Fiaf; conditions: C57bl6j mice, high fat diet, 100 mg/kg/body weight in diet, 5 weeks
Method: as §1, §2, §3
(§5) RNA extraction and gene expression. Total RNA from liver, intestine mucous membrane, adipose tissues, gastrocnemian muscle, pancreas and stomach were extracted with TRIzol reagent (Invitrogen, Carlsbad, USA) according to the manufacturer's instruction. The RNA concentration was determined on nanodrop from the absorbance at 260 nm. Retro-transcription PCRs to synthesize cDNA were performed using an Applied Biosystem Thermal Cycler 2720 and Superscript II (Invitrogen, Carlsbad, USA) according to manufacturer's protocol. Real-time quantitative PCR (RT-qPCR) were performed on cDNA obtained as described above using a high through put system (Biomek 3000, Beckman & Coulter, Fullerton, USA) and a Lightcycler 480 (Roche/Hitachi, Basel, Switzerland) with SYBR Green Master mix+kit (Eurogentec, Philadelphia, USA). Primers for the selected genes were generated using online informatics assistance from the Lightcycler manufacturer (Roche). Databases used to identify the genes were (1) the NCBI database (GenBank) and (2) the IHOP (Information Hyperlinked over Protein) database (www.ihop-net.org/UniPub/iHOP/bng/). Values were expressed as ratio of RNA levels relative to control mice (diets with 0 mg of OEA/kg/body weight) using ΔΔ(Ct) (Livak K J & Schmittgen T D, 2001, Methods 25:402-8). Gene expression of the following genes was measured (abbreviation and GenBank Accession shown in parentheses).
(§6) Statistical analysis. […] Statistical analysis of physiological parameters and gene expression data was performed by one-way ANOVA on Statview software (SAS Institute, Cary, USA). Daily food intake was analyzed using two-way ANOVA on Statview software. Statistical significance was set up at the P<0.05 level, the P<0.01 level and the P<0.001 level. For statistical analysis of the gene expression data, values were calculated relative to 18S expression for each mouse and gene.

[2] = system: Phosphoenolpyruvate carboxykinase (PEP CK); experiment: Real-time PCR gene expression in peripheral tissues: PepCK; conditions: liver; C57bl6j mice, high fat diet, 100 mg/kg/body weight in diet, 5 weeks
Method: as §1
(§7) Animals, diet, and experimental design. Adult male C57bl6j mice purchased at 8 weeks of age were individually housed and maintained ad libitum on high fat diet and water for 2 weeks. Seven mice were randomly allocated in 3 groups and fed with a high fat diet (lipids represented 50% of daily energy) for 2 weeks. […]
as §4, with “Total RNA from liver, intestine mucous membrane, adipose tissues, gastrocnemian muscle, pancreas and stomach were extracted with TRIzol reagent (Invitrogen, Carlsbad, USA) according to the manufacturer's instruction.” left out, “parentheses). […]” for “parentheses).”

[3] = system: Glucose 6-phosphatase (G6P); experiment: Real-time PCR gene expression in peripheral tissues: G6P; conditions: liver; C57bl6j mice, high fat diet, 100 mg/kg/body weight in diet, 5 weeks
Method: as §1, §7
as §4, with “Total RNA from liver, intestine mucous membrane, adipose tissues, gastrocnemian muscle, pancreas and stomach were extracted with TRIzol reagent (Invitrogen, Carlsbad, USA) according to the manufacturer's instruction.” left out, “parentheses). […]” for “parentheses).”

Cholescystokinin (CCK) = experiment: Real-time PCR gene expression in peripheral tissues: CCK; conditions: proximal intestine; C57bl6j mice, high fat diet, 100 mg/kg/body weight in diet, 5 weeks
Method: as §1, §7
as §4, with “Total RNA from liver, intestine mucous membrane, adipose tissues, gastrocnemian muscle, pancreas and stomach were extracted with TRIzol reagent (Invitrogen, Carlsbad, USA) according to the manufacturer's instruction.” left out, “parentheses). […]” for “parentheses).”

[4] = system: Glucose transporter 4 (Glut 4); experiment: Real-time PCR gene expression in peripheral tissues: Glut 4; conditions: muscle; C57bl6j mice, high fat diet, 100 mg/kg/body weight in diet, 5 weeks
Method: as §1, §7
as §4, with “Total RNA from liver, intestine mucous membrane, adipose tissues, gastrocnemian muscle, pancreas and stomach were extracted with TRIzol reagent (Invitrogen, Carlsbad, USA) according to the manufacturer's instruction.” left out, “parentheses). […]” for “parentheses).”

[5] = system: N-acylsphingosine amidohydrolase-like (NAAA); experiment: Real-time PCR gene expression in peripheral tissues: NAAA; conditions: C57bl6j mice, high fat diet, 100 mg/kg/body weight in diet, 5 weeks
Method: as §1, §2, §3, §5, §6

Ghrelin = experiment: Real-time PCR gene expression in peripheral tissues: ghrelin; conditions: stomach; C57bl6j mice, high fat diet, 100 mg/kg/body weight in diet, 5 weeks
Method: as §1, §7
as §4, with “Total RNA from liver, intestine mucous membrane, adipose tissues, gastrocnemian muscle, pancreas and stomach were extracted with TRIzol reagent (Invitrogen, Carlsbad, USA) according to the manufacturer's instruction.” left out, “parentheses). […]” for “parentheses).”

[6] = system: Oleoylethanolamide synthase (OEA synthase); experiment: Real-time PCR gene expression in peripheral tissues: OEA synthase; conditions: proximal intestine; C57bl6j mice, high fat diet, 100 mg/kg/body weight in diet, 5 weeks
Method: as §1, §7
as §4, with “Total RNA from liver, intestine mucous membrane, adipose tissues, gastrocnemian muscle, pancreas and stomach were extracted with TRIzol reagent (Invitrogen, Carlsbad, USA) according to the manufacturer's instruction.” left out, “parentheses). […]” for “parentheses).”

[7] = system: Peroxisome proliferator activated receptor alpha (PPAR α); experiment: Real-time PCR gene expression in peripheral tissues: PPAR α; conditions: proximal intestine; C57bl6j mice, high fat diet, 100 mg/kg/body weight in diet, 5 weeks
Method: as §1, §7
as §4, with “Total RNA from liver, intestine mucous membrane, adipose tissues, gastrocnemian muscle, pancreas and stomach were extracted with TRIzol reagent (Invitrogen, Carlsbad, USA) according to the manufacturer's instruction.” left out, “parentheses). […]” for “parentheses).”

[8] = system: Fatty Acid Synthase (FAS 1); experiment: Real-time PCR gene expression in peripheral tissues: FAS; conditions: liver; C57bl6j mice, high fat diet, 100 mg/kg/body weight in diet, 5 weeks
Method: as §1, §7
as §4, with “Total RNA from liver, intestine mucous membrane, adipose tissues, gastrocnemian muscle, pancreas and stomach were extracted with TRIzol reagent (Invitrogen, Carlsbad, USA) according to the manufacturer's instruction.” left out, “parentheses). […]” for “parentheses).”

[9] = system: Fatty acid transporter/cluster of differentiation 36 (FAT/CD 36); experiment: Real-time PCR gene expression in peripheral tissues: FAT/CD36; conditions: C57bl6j mice, high fat diet, 100 mg/kg/body weight in diet, 5 weeks
Method: as §1, §2, §3, §5
Statistical analysis. Results are presented as means±standard error of the means (SEM). Statistical analysis of physiological parameters and gene expression data was performed by one-way ANOVA on Statview software (SAS Institute, Cary, USA). Daily food intake was analyzed using two-way ANOVA on Statview software. Statistical significance was set up at the P<0.05 level, the P<0.01 level and the P<0.001 level. For statistical analysis of the gene expression data, values were calculated relative to 18S expression for each mouse and gene.

[10] = system: G protein coupled receptor 119 (GPR 119); experiment: Real-time PCR gene expression in peripheral tissues: GPR119; conditions: proximal intestine; C57bl6j mice, high fat diet, 100 mg/kg/body weight in diet, 5 weeks
Method: as §1, §7
as §4, with “Total RNA from liver, intestine mucous membrane, adipose tissues, gastrocnemian muscle, pancreas and stomach were extracted with TRIzol reagent (Invitrogen, Carlsbad, USA) according to the manufacturer's instruction.” left out, “parentheses). […]” for “parentheses).”

CPT1 = experiment: Real-time PCR gene expression in peripheral tissues: CPT1; conditions: C57bl6j mice, high fat diet, 100 mg/kg/body weight in diet, 5 weeks
Method: as §1, §2, §3, §5, §6

CCCCCCCC/C=C\CCCCCCCC(=O)N[C@H](C)CO [KDS 5104, (Z)—(R)-9-octadecenamide, N-(2-hydroxyethyl, 1-methyl)]
adiponectin at per, ratio of RNA levels relative to control mice (Adiponectin): −1.52 | Fiaf at ep, ratio of RNA levels relative to control mice ([1]; epidydimal adipose tissue): 0.46 | Fiaf at per, ratio of RNA levels relative to control mice ([1]; peritoneal adipose tissue): 2.79 | Fiaf i, ratio of RNA levels relative to control mice ([1]; proximal intestine): 0.68 | PepCK l, ratio of RNA levels relative to control mice [2]: 1.55 | G6P l, ratio of RNA levels relative to control mice [3]: 2.12 | CCK i, ratio of RNA levels relative to control mice (Cholescystokinin (CCK)): 1.62 | Glut 4 m, ratio of RNA levels relative to control mice [4]: 5.70 | NAAA at ep, ratio of RNA levels relative to control mice ([5]; epidydimal adipose tissue): 1.38 | NAAA at per, ratio of RNA levels relative to control mice ([5]; peritoneal adipose tissue): 1.52 | NAAA i, ratio of RNA levels relative to control mice ([5]; proximal intestine): 1.60 | ghrelin s, ratio of RNA levels relative to control mice (Ghrelin): 1.04 | OEA synthase i, ratio of RNA levels relative to control mice [6]: −1.36 | PPAR α i, ratio of RNA levels relative to control mice [7]: 1.02 | FAS l, ratio of RNA levels relative to control mice [8]: 2.47 | FAT/CD36 at ep, ratio of RNA levels relative to control mice ([9]; epidydimal adipose tissue): −2.24 | FAT/CD36 l, ratio of RNA levels relative to control mice ([9]; liver): 0.88 | FAT/CD36 at per, ratio of RNA levels relative to control mice ([9]; peritoneal adipose tissue): 1.01 | FAT/CD36 i, ratio of RNA levels relative to control mice ([9]; proximal intestine): 1.83 | GPR119 i, ratio of RNA levels relative to control mice [10]: 4.95 | CPT1 l, ratio of RNA levels relative to control mice (CPT1; liver): 1.06 | CPT1 p, ratio of RNA levels relative to control mice (CPT1; pancreas): 1.80 | CPT1 i, ratio of RNA levels relative to control mice (CPT1; proximal intestine): 1.63
